Where a name gives a salt, the structure may show the parent alone.
Biological target: T1, R398Q mutant KCNT1 channels (Homo sapiens, UniProt Q5JUK3, R379Q)
T1 construct: YFP-6His; expressed in transfected cells; host or cells: HEK293T
T1 sequence (Q5JUK3 1-1235 isoform Q5JUK3-3 R398Q): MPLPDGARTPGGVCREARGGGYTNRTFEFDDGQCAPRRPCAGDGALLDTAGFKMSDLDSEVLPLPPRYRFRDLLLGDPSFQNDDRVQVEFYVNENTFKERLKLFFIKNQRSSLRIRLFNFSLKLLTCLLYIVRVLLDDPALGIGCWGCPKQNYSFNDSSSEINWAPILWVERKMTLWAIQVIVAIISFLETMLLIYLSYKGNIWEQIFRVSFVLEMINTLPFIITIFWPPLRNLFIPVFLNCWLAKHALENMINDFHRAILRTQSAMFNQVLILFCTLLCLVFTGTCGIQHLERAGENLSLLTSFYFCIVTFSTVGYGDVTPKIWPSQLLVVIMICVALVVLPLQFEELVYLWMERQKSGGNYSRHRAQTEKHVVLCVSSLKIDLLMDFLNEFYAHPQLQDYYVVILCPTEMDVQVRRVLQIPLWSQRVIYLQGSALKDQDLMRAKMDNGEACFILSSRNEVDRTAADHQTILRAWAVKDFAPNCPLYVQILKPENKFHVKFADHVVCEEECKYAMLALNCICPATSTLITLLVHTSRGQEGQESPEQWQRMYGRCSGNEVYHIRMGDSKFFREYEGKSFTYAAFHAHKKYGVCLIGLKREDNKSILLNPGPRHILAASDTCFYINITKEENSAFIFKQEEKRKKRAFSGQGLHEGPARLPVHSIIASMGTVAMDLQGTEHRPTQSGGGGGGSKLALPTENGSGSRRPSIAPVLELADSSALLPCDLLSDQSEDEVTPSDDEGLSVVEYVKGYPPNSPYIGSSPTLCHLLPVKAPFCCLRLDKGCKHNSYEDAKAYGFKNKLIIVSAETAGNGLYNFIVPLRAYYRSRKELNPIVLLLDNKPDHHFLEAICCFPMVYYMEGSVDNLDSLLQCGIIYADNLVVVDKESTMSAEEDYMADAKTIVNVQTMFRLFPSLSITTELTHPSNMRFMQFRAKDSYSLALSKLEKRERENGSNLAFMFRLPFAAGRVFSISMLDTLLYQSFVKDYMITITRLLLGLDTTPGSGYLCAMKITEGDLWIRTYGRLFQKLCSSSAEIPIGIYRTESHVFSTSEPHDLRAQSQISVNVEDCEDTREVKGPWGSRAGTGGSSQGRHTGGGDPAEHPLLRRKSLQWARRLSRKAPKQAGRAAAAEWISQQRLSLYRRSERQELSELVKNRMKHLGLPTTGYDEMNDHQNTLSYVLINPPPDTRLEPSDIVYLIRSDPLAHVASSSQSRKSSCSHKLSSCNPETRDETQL
Experiment: Inside-out patch clamp of HEK293T cells expressing R398Q KCNT1
Assay type: cell-based
Details: inside-out patches, mean ± SEM
Experimental: The CHO cells were cultured in Dulbecco's modified Eagle's Medium (ThermoFisher, UK) supplemented with 10% (v/v) fetal bovine serum, 50 U/ml penicillin and 0.05 mg/ml streptomycin, and incubated at 37°C in 5% CO2 atmosphere. For whole cell recording of WT/Y796H KCNT1, CHO cells were transiently co‐transfected with concatemeric WT/Y796H and EYFP, as described previously.[29] For electrophysiological experiments, cells were plated onto borosilicate glass cover slips and used 2 to 4 days later. Human embryonic kidney 293T cells (HEK293T) were cultured in the same manner, but with medium supplemented with 2 mM L‐glutamine, and 1% (v/v) nonessential amino acids. For excised inside‐out recording of homomeric WT or mutant YFP‐tagged KCNT1, HEK293T cells plated on glass cover slips were transfected using Attractene Transfection Reagent (Qiagen, Germany) according to the manufacturer's instructions and used 2 to 3 days later.
Inside‐out patch clamp recordings were made at room temperature (23°C) from transiently transfected HEK293T cells, as described previously.[11] The pipette solution contained, in mM, 140 NaCl, 4 KCl, 2 CaCl2, 2 MgCl2, and 10 HEPES adjusted to pH 7.4 with NaOH. […] KCNT1 currents were recorded using 2 voltage protocols, depending on the number of active channels in the patch before drug application. Macroscopic currents (number of active channels > 15) were recorded in response to 100 ms voltage ramps between −120 and 120 mV applied every 2 seconds from a holding potential of −78 mV. […] With a lower number of active channels in the patch (3–15), current traces were recorded in response to 15‐second voltage steps to −20, 0, and 20 mV from a holding potential of −78 mV. Currents recorded at each voltage and each drug concentration were averaged over the duration of the trace and normalized to the average amplitudes of the corresponding current traces in drug‐free solution. […] Single channel data were analyzed using Ana software developed by Dr Michael Pusch (Istituto di Biofisica, Genova, Italy; http://users.ge.ibf.cnr.it/pusch/programs-mik.htm). […]

With O=C(OCCN1CCN(c2cccc(C(F)(F)F)c2)CC1)c1ccccc1Nc1ccnc2cc(C(F)(F)F)ccc12 [antrafenine] the IC50 was 0.0307 ± 0.0074 µM.

CC(C)c1c(C(=O)Nc2ccccc2)c(-c2ccccc2)c(-c2ccc(F)cc2)n1CC[C@@H](O)C[C@@H](O)CC(=O)O [atorvastatin] was tested, and the IC50 was 4.5 ± 1.7 µM.

Cc1c(O)cccc1C(=O)N[C@@H](CSc1ccccc1)[C@H](O)CN1C[C@H]2CCCC[C@H]2C[C@H]1C(=O)NC(C)(C)C [nelfinavir mesylate] showed an IC50 of 0.0112 ± 0.0022 µM.

Reference: PMC12682947, “Identification of New KCNT1‐Epilepsy Drugs by In Silico, Cell, and Drosophila Modeling” (Annals of Neurology, 2025)
